# Laboratory results taken from patent US20090076152A1, “Novel Compounds Active as Muscarinic Receptor Antagonists” (priority 2007, published 2009).
# Molecular target: T1, human muscarinic M3 receptor (Homo sapiens, UniProt P20309)
# T1 construct: expressed in transfected cells
# Assay: hM3 β-Lac potency assay (NFAT-Betalactamase reporter in CHO-K1 cells)
# Settings: CHO cells recombinantly expressing human M3, NFAT β-lactamase reporter; inhibition of 80 nM carbamyl choline signal, 4 h; IC50 converted to Ki by Cheng-Prusoff; read-out: Cell based β-lactamase M3 Ki
# Protocol: M3 potency was determined in CHO-K1 cells transfected with the NFAT-Betalactamase gene. CHO (Chinese Hamster Ovary) cells recombinantly expressing the human muscarinic M3 receptor were transfected with the NFAT_β-Lac_Zeo plasmid. Cells were grown in DMEM with Glutamax-1, supplemented with 25 mM HEPES(Life Technologies 32430-027), containing 10% FCS (Foetal Calf Serum; Sigma F-7524), […] Sodium pyruvate (Sigma S-8636), NEM (non-Essential Amino Acids; Invitrogen 11140-035) and 200 μg/ml Zeocin (Invitrogen R250-01).
# Cells were harvested for assay when they reached 80-90% confluency using enzyme free cell Dissociation Solution (Life technologies 13151-014) incubated with the cells for 5 min at 37° C. in an atmosphere containing 5% CO2. Detached cells were collected in warmed growth media and centrifuged at 2000 rpm for 10 min, washed in PBS (Phosphate Buffered Saline; Life Technologies 14190-094) and centrifuged again as just described. The cells were re-suspended at 2×10^5 cells/ml in growth medium (composition as described above). 20 μl of this cell suspension was added to each well of a 384 well black clear bottomed plate (Greiner Bio One 781091-PFI). The assay buffer used was PBS supplemented with 0.05% Pluronic F-127 (Sigma 9003-11-6) and 2.5% DMSO. Muscarinic M3 receptor signalling was stimulated using 80 nM carbamyl choline (Aldrich N240-9) incubated with the cells for 4 h at 37° C./5% CO2 and monitored at the end of the incubation period using a Tecan SpectraFluor+ plate reader (λ—excitation 405 nm, emission 450 nm and 503 nm). M3 receptor antagonists under test were added to the assay at the beginning of the 4 h incubation period and compound activity measured as the concentration dependent inhibition of the carbamyl choline induced signal. Inhibition curves were plotted and IC50 values generated using a 4-parameter sigmoid fit and converted to Ki values using the Cheng-Prusoff correction and the KD value for carbamyl choline in the assay.
# T1 sequence (P20309 whole entry): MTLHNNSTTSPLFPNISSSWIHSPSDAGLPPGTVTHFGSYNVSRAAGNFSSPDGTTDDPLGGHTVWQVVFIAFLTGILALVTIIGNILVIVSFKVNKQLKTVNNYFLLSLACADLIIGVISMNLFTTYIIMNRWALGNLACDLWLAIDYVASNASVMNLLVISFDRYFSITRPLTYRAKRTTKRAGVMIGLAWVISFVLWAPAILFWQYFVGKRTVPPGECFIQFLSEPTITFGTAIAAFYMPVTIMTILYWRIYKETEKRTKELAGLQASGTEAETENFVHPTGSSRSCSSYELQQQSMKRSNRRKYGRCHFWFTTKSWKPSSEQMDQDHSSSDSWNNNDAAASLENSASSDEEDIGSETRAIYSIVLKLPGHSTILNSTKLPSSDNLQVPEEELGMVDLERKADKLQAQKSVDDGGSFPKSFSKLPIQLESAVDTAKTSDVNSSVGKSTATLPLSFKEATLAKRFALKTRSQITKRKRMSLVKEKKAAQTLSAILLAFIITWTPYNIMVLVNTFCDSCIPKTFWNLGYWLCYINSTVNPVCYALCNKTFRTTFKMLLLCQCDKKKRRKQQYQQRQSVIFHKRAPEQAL
smiles,measurement,value
"CC(C)N(CC[C@H](c1ccccc1)c1cc(CCOc2ccc(CCNS(=O)(=O)c3ccc(O)cc3)cc2)ccc1O)C(C)C [Example 27, N-[2-(4-{2-[3-((1R)-3-diisopropylamino-1-phenyl-propyl)-4-hydroxy-phenyl]-ethoxy}-phenyl)-ethyl]-4-hydroxy-benzenesulfonamide]",Ki,1.32 nM
